Target: T1, HIF-1α (Homo sapiens, UniProt Q16665)
T1 construct: gene HIF1A; recombinant protein HIF-1α (MCE #HY-P74888)
Test: SPR (Biacore T200, HIF-1α amine-coupled to CM5 chip)
Type: binding

T1 sequence (Q16665 whole entry): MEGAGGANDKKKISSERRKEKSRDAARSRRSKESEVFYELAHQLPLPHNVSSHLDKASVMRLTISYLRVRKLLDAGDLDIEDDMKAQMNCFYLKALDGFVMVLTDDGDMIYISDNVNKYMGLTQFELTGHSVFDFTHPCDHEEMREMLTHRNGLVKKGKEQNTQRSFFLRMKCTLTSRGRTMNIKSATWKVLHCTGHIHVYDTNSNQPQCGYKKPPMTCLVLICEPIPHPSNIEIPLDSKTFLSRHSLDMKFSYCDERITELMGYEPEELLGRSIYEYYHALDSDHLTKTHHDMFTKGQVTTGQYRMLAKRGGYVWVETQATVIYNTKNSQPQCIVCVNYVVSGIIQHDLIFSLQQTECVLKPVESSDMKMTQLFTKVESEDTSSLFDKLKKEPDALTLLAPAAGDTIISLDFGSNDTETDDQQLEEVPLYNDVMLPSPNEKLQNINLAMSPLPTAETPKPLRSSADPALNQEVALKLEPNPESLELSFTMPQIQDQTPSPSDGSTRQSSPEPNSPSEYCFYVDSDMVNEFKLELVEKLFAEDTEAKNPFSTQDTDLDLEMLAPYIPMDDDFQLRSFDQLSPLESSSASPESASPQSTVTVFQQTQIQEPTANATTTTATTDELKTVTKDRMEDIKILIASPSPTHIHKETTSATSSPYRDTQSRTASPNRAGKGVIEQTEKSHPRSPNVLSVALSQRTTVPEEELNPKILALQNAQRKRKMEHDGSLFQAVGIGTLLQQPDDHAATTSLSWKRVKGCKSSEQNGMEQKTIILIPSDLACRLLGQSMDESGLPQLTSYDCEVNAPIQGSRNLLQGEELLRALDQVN

Kd: 13 µM
Structure (SMILES): COc1cc2c(c(O)c1OC)-c1c(cc3c(c1OC)OCO3)[C@H](OC(C)=O)[C@H](C)[C@H](C)C2 [ACBA, Acetylbinankadsurin A]

Reference: publication PMC12692955, “Acetylbinankadsurin A Decreases Macrophage Glycolysis and Pro-Inflammatory Phenotype Polarization via Inhibiting HIF-1α to Alleviate Hepatic Fibrosis in Mice” (Molecules, 2025)
